Reference: US3960877A, “N-monosubstituted-2,3-pyridinedicarboxamides, and related compounds” (priority 1974, dated 1976)

How the values were obtained:
Format in all cases: in vivo
[1] = tested on: Yellow Rocket; assay: Postemergence herbicidal activity, % control of plant growth; details: post-emergence, 264 h, 8 lb/acre, about 11 days
Excerpt: (§1) By the term "postemergence" is meant that the compound is applied to the plant sought to be controlled after it has emerged from the soil surface. This term is also used to describe the application of herbicidally active compounds to soil surface in and around growing plants sought to be controlled for purposes of effecting root absorption by the undesirable plant species.
(§2) In the postemergence test the soil and developing plants were sprayed approximately 2 weeks after the seeds were sown. The compound was applied at the rate of 8 pounds per acre from about a 2 percent by weight solution of the test compound in acetone and/or alcohol. The postemergence herbicidal activity was measured in the same way as the preemergence activity; i.e. visual observation approximately 11 days after spraying, and expressed as the percent control of plant growth.
(§3) **Postemergence test: compound applied at rate of 8 lb/acre

[2] = tested on: Cheatgrass; assay: as above; details: Bromus tectorum, post-emergence, 264 h, 8 lb/acre, about 11 days
Excerpt: as §1, §2, §3

[3] = tested on: Johnsongrass; assay: as above; details: Sorghum halepense, post-emergence, 264 h, 8 lb/acre, about 11 days
Excerpt: as §1, §2, §3

[4] = tested on: Barnyard Grass; assay: as above; details: Echinochloa crus-galli, post-emergence, 264 h, 8 lb/acre, about 11 days
Excerpt: as §1, §2, §3

[5] = tested on: Lambsquarters; assay: as above; details: Chenopodium album, post-emergence, 264 h, 8 lb/acre, about 11 days
Excerpt: as §1, §2, §3

[6] = tested on: Cucumber; assay: as above; details: Cucumis sativus, post-emergence, 264 h, 8 lb/acre, about 11 days
Excerpt: as §1, §2, §3

[7] = tested on: Velvetleaf; assay: as above; details: Abutilon theophrasti, post-emergence, 264 h, 8 lb/acre, about 11 days
Excerpt: as §1, §2, §3

[8] = tested on: Pigweed; assay: as above; details: Amaranthus retroflexus, post-emergence, 264 h, 8 lb/acre, about 11 days
Excerpt: as §1, §2, §3

[9] = tested on: Chickweed; assay: as above; details: post-emergence, 264 h, 8 lb/acre, about 11 days
Excerpt: as §1, §2, §3

[10] = tested on: Alfalfa; assay: as above; details: Medicago sativa, post-emergence, 264 h, 8 lb/acre, about 11 days
Excerpt: as §1, §2, §3

[11] = tested on: Wild Oats; assay: as above; details: Avena fatua, post-emergence, 264 h, 8 lb/acre, about 11 days
Excerpt: as §1, §2, §3

[12] = tested on: Curled Dock; assay: as above; details: post-emergence, 264 h, 8 lb/acre, about 11 days
Excerpt: as §1, §2, §3

[13] = tested on: Nutgrass; assay: as above; details: post-emergence, 264 h, 8 lb/acre, about 11 days
Excerpt: as §1, §2, §3

[14] = tested on: Corn; assay: as above; details: Zea mays, post-emergence, 264 h, 8 lb/acre, about 11 days
Excerpt: as §1, §2, §3

[15] = tested on: Crabgrass; assay: as above; details: Digitaria sanguinalis, post-emergence, 264 h, 8 lb/acre, about 11 days
Excerpt: as §1, §2, §3

[16] = tested on: Snapbeans; assay: as above; details: post-emergence, 264 h, 8 lb/acre, about 11 days
Excerpt: as §1, §2, §3

[17] = tested on: Foxtail; assay: as above; details: Setaria, post-emergence, 264 h, 8 lb/acre, about 11 days
Excerpt: as §1, §2, §3

[18] = tested on: Yellow Rocket; assay: Preemergence herbicidal activity, % control of plant growth; details: pre-emergence, 504 h, 16 lb/acre, about 3 weeks
Excerpt: (§4) By "preemergence" is meant that the compound is applied to the soil prior to emergence of the weed species sought to be controlled. This term, as used herein, also means the application of the herbicidal compounds falling within the scope of this disclosure to areas wherein useful or desirable plants are either growing or have been sown, but where the undesirable plants sought to be controlled have not as yet emerged.
(§5) In using the compound, seeds of the types of plants set forth in Table II were sown in fresh soil. In the preemergence test the soil was sprayed with a solution of the test compound immediately after the seeds were planted, and before any noticeable growth developed. The solution was about a 2 percent by weight solution of the compound in acetone and/or alcohol. The compound was applied at the rate of 16 pounds per acre of soil surface.
(§6) Approximately 3 weeks after spray application, the herbicidal activity of the compound was determined by visual observation of the treated area in comparison with untreated control areas. These observations are reported below in Table II wherein the average activity rating is reported as the percent control of plant growth.
(§7) *Preemergence test: compound applied at rate of 16 lb/acre

[19] = tested on: Cheatgrass; assay: as above; details: Bromus tectorum, pre-emergence, 504 h, 16 lb/acre, about 3 weeks
Excerpt: as §4, §5, §6, §7

[20] = tested on: Johnsongrass; assay: as above; details: Sorghum halepense, pre-emergence, 504 h, 16 lb/acre, about 3 weeks
Excerpt: as §4, §5, §6, §7

[21] = tested on: Barnyard Grass; assay: as above; details: Echinochloa crus-galli, pre-emergence, 504 h; barnyard grass; 16 lb/acre; about 3 weeks
Excerpt: as §4, §5, §6, §7

[22] = tested on: Lambsquarters; assay: as above; details: Chenopodium album, pre-emergence, 504 h, 16 lb/acre, about 3 weeks
Excerpt: as §4, §5, §6, §7

[23] = tested on: Cucumber; assay: as above; details: Cucumis sativus, pre-emergence, 504 h, 16 lb/acre, about 3 weeks
Excerpt: as §4, §5, §6, §7

[24] = tested on: Velvetleaf; assay: as above; details: Abutilon theophrasti, pre-emergence, 504 h, 16 lb/acre, about 3 weeks
Excerpt: as §4, §5, §6, §7

[25] = tested on: Pigweed; assay: as above; details: Amaranthus retroflexus, pre-emergence, 504 h, 16 lb/acre, about 3 weeks
Excerpt: as §4, §5, §6, §7

[26] = tested on: Chickweed; assay: as above; details: pre-emergence, 504 h, 16 lb/acre, about 3 weeks
Excerpt: as §4, §5, §6, §7

[27] = tested on: Alfalfa; assay: as above; details: Medicago sativa, pre-emergence, 504 h, 16 lb/acre, about 3 weeks
Excerpt: as §4, §5, §6, §7

[28] = tested on: Wild Oats; assay: as above; details: Avena fatua, pre-emergence, 504 h, 16 lb/acre, about 3 weeks
Excerpt: as §4, §5, §6, §7

[29] = tested on: Curled Dock; assay: as above; details: pre-emergence, 504 h, 16 lb/acre, about 3 weeks
Excerpt: as §4, §5, §6, §7

[30] = tested on: Nutgrass; assay: as above; details: pre-emergence, 504 h, 16 lb/acre, about 3 weeks
Excerpt: as §4, §5, §6, §7

[31] = tested on: Corn; assay: as above; details: Zea mays, pre-emergence, 504 h, 16 lb/acre, about 3 weeks
Excerpt: as §4, §5, §6, §7

[32] = tested on: Crabgrass; assay: as above; details: Digitaria sanguinalis, pre-emergence, 504 h, 16 lb/acre, about 3 weeks
Excerpt: as §4, §5, §6, §7

[33] = tested on: Snapbeans; assay: as above; details: pre-emergence, 504 h, 16 lb/acre, about 3 weeks
Excerpt: as §4, §5, §6, §7

[34] = tested on: Foxtail; assay: as above; details: Setaria, pre-emergence, 504 h, 16 lb/acre, about 3 weeks
Excerpt: as §4, §5, §6, §7

SMILES	pest or weed control at 8966.8 g/ha [1]	pest or weed control at 8966.8 g/ha [2]	pest or weed control at 8966.8 g/ha [3]	pest or weed control at 8966.8 g/ha [4]	pest or weed control at 8966.8 g/ha [5]	pest or weed control at 8966.8 g/ha [6]	pest or weed control at 8966.8 g/ha [7]	pest or weed control at 8966.8 g/ha [8]	pest or weed control at 8966.8 g/ha [9]	pest or weed control at 8966.8 g/ha [10]	pest or weed control at 8966.8 g/ha [11]	pest or weed control at 8966.8 g/ha [12]	pest or weed control at 8966.8 g/ha [13]	plant injury at 8966.8 g/ha [14]	pest or weed control at 8966.8 g/ha [15]	pest or weed control at 8966.8 g/ha [16]	pest or weed control at 8966.8 g/ha [17]	pest or weed control at 17933.6 g/ha [18]	pest or weed control at 17933.6 g/ha [19]	pest or weed control at 17933.6 g/ha [20]	further results
CCCCC(CC)Cn1c(=O)[nH]c2cccnc2c1=O (centres unmarked) [3-(2-ethylhexyl)pyrido[3,2-d]pyrimidine-2,4(1H,3H)-dione]	90%	0%	0%	0%	100%	20%	0%	100%	50%	0%	0%	10%	0%	0%	10%	0%	0%	90%	0%	0%	pest or weed control at 17933.6 g/ha [21]: 0%; pest or weed control at 17933.6 g/ha [22]: 30%; pest or weed control at 17933.6 g/ha [23]: 10%; pest or weed control at 17933.6 g/ha [24]: 0%; pest or weed control at 17933.6 g/ha [25]: 0%; pest or weed control at 17933.6 g/ha [26]: 70%; pest or weed control at 17933.6 g/ha [27]: 0%; pest or weed control at 17933.6 g/ha [28]: 0%; pest or weed control at 17933.6 g/ha [29]: 0%; pest or weed control at 17933.6 g/ha [30]: 0%; plant injury at 17933.6 g/ha [31]: 0%; pest or weed control at 17933.6 g/ha [32]: 10%; pest or weed control at 17933.6 g/ha [33]: 0%; pest or weed control at 17933.6 g/ha [34]: 0%
C=CCn1c(=O)[nH]c2cccnc2c1=O [3-allyl-pyrido[3,2-d]pyrimidine-2,4(1H,3H)-dione]	100%	30%	100%	100%	100%	100%	100%	100%	100%	100%	20%	100%	30%	30%	100%	100%	100%	100%	100%	90%	pest or weed control at 17933.6 g/ha [21]: 90%; pest or weed control at 17933.6 g/ha [22]: 100%; pest or weed control at 17933.6 g/ha [23]: 100%; pest or weed control at 17933.6 g/ha [24]: 90%; pest or weed control at 17933.6 g/ha [25]: 100%; pest or weed control at 17933.6 g/ha [26]: 100%; pest or weed control at 17933.6 g/ha [27]: 100%; pest or weed control at 17933.6 g/ha [28]: 100%; pest or weed control at 17933.6 g/ha [29]: 100%; pest or weed control at 17933.6 g/ha [30]: 20%; plant injury at 17933.6 g/ha [31]: 50%; pest or weed control at 17933.6 g/ha [32]: 100%; pest or weed control at 17933.6 g/ha [33]: 100%; pest or weed control at 17933.6 g/ha [34]: 90%
O=c1[nH]c2cccnc2c(=O)n1C1CCCCCCC1 [3-cyclooctyl-pyrido[3,2-d]pyrimidine-2,4(1H,3H)-dione]	100%	30%	100%	90%	100%	100%	100%	100%	100%	60%	40%	100%	40%	0%	100%	90%	80%	100%	100%	100%	pest or weed control at 17933.6 g/ha [22]: 100%; pest or weed control at 17933.6 g/ha [23]: 90%; pest or weed control at 17933.6 g/ha [24]: 100%; pest or weed control at 17933.6 g/ha [25]: 100%; pest or weed control at 17933.6 g/ha [26]: 100%; pest or weed control at 17933.6 g/ha [27]: 100%; pest or weed control at 17933.6 g/ha [28]: 100%; pest or weed control at 17933.6 g/ha [29]: 100%; pest or weed control at 17933.6 g/ha [30]: 20%; plant injury at 17933.6 g/ha [31]: 50%; pest or weed control at 17933.6 g/ha [32]: 100%; pest or weed control at 17933.6 g/ha [33]: 100%; pest or weed control at 17933.6 g/ha [34]: 100%
